Experimental data reported in ChEMBL document CHEMBL6178023 (J Med Chem, 2025).
Converted amounts (≈) assume the structure as drawn.

Key:
[1] = system: Chikungunya virus; assay: Antiviral activity against CHIKV 181/25 expressing nLuc-capsid gene infected in human MRC5 cells assessed as reduction in viral replication preincubated with cells for 1 hr followed by viral infection measured after 6 hrs post-infection by Nano-glo luciferase assay; type: functional, organism-based
[2] = system: MRC5; assay: Cytotoxicity against human MRC5 cells at 10 to 40 uM by Cell Titer Glo assay; type: toxicity, cell-based; settings: mrc5, 40 µM, dose 10-40 µM
[3] = Aqueous solubility of compound in PBS at pH 7.4; type: physicochemical
[4] = biological target: Polyprotein P1234 (Chikungunya virus (strain S27-African prototype) (CHIKV), UniProt Q8JUX6); assay: Inhibition of N-terminal 6-His/SUMO-tagged CHIKV 181/25 nsP2 extracted from Escherichia coli Rosetta 2 preincubated for 30 mins followed by ATP addition measured after 1 hr by ADP-Glo assay
[5] = system: Chikungunya virus; assay: Inhibition of N-terminal 6-His/SUMO-tagged CHIKV 181/25 nsP2 extracted from Escherichia coli Rosetta 2 at 200 uM preincubated for 30 mins followed by ATP addition measured after 1 hr by ADP-Glo assay relative to control; settings: time 90.0 min
[6] = 181/25, MRC5, read-out: pEC50 (converted)

Sequence of Polyprotein P1234 (Q8JUX6 536-1333 limits assumed): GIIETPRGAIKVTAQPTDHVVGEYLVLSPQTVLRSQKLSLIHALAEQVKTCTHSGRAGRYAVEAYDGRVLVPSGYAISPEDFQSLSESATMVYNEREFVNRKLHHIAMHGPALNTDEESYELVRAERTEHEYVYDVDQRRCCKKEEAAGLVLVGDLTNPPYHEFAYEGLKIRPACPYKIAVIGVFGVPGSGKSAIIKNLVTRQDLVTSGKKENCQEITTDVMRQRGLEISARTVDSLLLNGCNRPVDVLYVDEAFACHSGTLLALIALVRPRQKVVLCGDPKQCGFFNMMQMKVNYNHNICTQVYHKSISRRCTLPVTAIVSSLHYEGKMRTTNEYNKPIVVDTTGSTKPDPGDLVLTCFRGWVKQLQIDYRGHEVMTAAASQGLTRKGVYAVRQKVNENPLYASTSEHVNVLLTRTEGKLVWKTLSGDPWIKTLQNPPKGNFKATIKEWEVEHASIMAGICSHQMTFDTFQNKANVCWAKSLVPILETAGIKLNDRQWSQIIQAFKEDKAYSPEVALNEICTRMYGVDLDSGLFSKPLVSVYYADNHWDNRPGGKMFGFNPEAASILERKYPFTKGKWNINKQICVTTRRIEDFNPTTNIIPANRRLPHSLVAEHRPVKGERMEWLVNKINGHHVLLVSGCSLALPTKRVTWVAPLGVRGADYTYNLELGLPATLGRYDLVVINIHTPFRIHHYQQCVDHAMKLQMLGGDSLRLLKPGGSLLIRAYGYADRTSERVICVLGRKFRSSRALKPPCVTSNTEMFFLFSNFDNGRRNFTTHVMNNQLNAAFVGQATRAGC

SMILES	EC50 [1, 6] [µM]	Activity [2]	solubility kinetic [3] [µM]	IC50 [4] [µM]	inhibition [5] [%]	EC50 ([1]; 181/25, MRC5, read-out: EC50) [µM]
CN(C)S(=O)(=O)N(C)CC1CCOC2(CCN(C(=O)C3(c4ccccc4)CCCC3)CC2)C1 (stereo unspecified)	1.58	Non-toxic	160 (≈ 76.4 µg/mL)	5.01	–	–
O=C(N1CCC2(CC1)CC(CNCC(F)(F)F)CCO2)C1(c2ccccc2)CCCC1 (stereo unspecified)	12.6	Non-toxic	170 (≈ 74.6 µg/mL)	> 39.8	–	–
O=C(NCC1CCOC2(CCN(C(=O)C3(c4ccccc4)CCCC3)CC2)C1)c1ccccn1 (stereo unspecified)	1.58	Non-toxic	190 (≈ 87.7 µg/mL)	> 39.8	90	–
O=C(N1CCC2(CC1)CC(CNS(=O)(=O)CCCCl)CCO2)C1(c2ccccc2)CCCC1 (stereo unspecified)	0.631	Non-toxic	100 (≈ 49.7 µg/mL)	2	–	–
CN(CC1CCOC2(CCN(C(=O)C3(c4ccccc4)CCCC3)CC2)C1)S(=O)(=O)CCCCl (stereo unspecified)	0.398	Non-toxic	50 (≈ 25.6 µg/mL)	1	–	–
O=C(NCC1CCOC2(CCN(C(=O)C3(c4ccccc4)CCCC3)CC2)C1)C1CC1 (stereo unspecified)	3.98	Non-toxic	160 (≈ 67.9 µg/mL)	> 39.8	80	–
O=C(N1CCC2(CC1)CC(CNS(=O)(=O)CCCCCl)CCO2)C1(c2ccccc2)CCCC1 (stereo unspecified)	1.26	Non-toxic	60 (≈ 30.7 µg/mL)	10	–	–
O=C(NCC1CCOC2(CCN(C(=O)C3(c4ccccc4)CCCC3)CC2)C1)c1cccnc1 (stereo unspecified)	2.51	Non-toxic	90 (≈ 41.5 µg/mL)	12.6	–	–
CS(=O)(=O)NCC1CCOC2(CCN(C(=O)C3(c4cccc(Cl)c4)CCCC3)CC2)C1 (stereo unspecified)	2.51	Non-toxic	–	20	–	–
CCN(C)S(=O)(=O)NCC1CCOC2(CCN(C(=O)C3(c4ccccc4)CCCC3)CC2)C1 (stereo unspecified)	3.98	Non-toxic	160 (≈ 76.4 µg/mL)	15.8	–	–
CN(C)S(=O)(=O)NCC1CCOC2(CCN(C(=O)C3(c4ccccc4)CCCC3)CC2)C1 (stereo unspecified)	2.51	Non-toxic	200 (≈ 92.7 µg/mL)	> 39.8	90	–
O=C(N1CCC2(CC1)CC(CNS(=O)(=O)c1ccccc1)CCO2)C1(c2ccccc2)CCCC1 (stereo unspecified)	3.98	Non-toxic	1 (≈ 0.497 µg/mL)	> 39.8	40	–
O=C1CCCN1CC1CCOC2(CCN(C(=O)C3(c4ccccc4)CCCC3)CC2)C1 (stereo unspecified)	2.51	Non-toxic	200 (≈ 84.9 µg/mL)	> 39.8	90	–
O=C(N1CCC2(CC1)CC(CN1CCCCS1(=O)=O)CCO2)C1(c2cc(F)cc(F)c2)CCCC1 (stereo unspecified)	0.1	Non-toxic	4 (≈ 2.04 µg/mL)	0.398	–	–
CN(C)S(=O)(=O)NCC1CCOC2(CCN(C(=O)C3(c4ccccc4F)CCCC3)CC2)C1 (stereo unspecified)	5.01	Non-toxic	–	31.6	–	–
CN(CC1CCOC2(CCN(C(=O)C3(c4ccccc4)CCCC3)CC2)C1)C(=O)c1ccccn1 (stereo unspecified)	5.01	Non-toxic	180 (≈ 85.6 µg/mL)	> 39.8	80	–
CC(C)C(=O)NCC1CCOC2(CCN(C(=O)C3(c4ccccc4)CCCC3)CC2)C1 (stereo unspecified)	3.98	Non-toxic	170 (≈ 72.5 µg/mL)	> 39.8	80	–
O=C1CCC(=O)N1CC1CCOC2(CCN(C(=O)C3(c4ccccc4)CCCC3)CC2)C1 (stereo unspecified)	1	Non-toxic	160 (≈ 70.2 µg/mL)	1.26	–	–
CCS(=O)(=O)NCC1CCOC2(CCN(C(=O)C3(c4ccccc4)CCCC3)CC2)C1 (stereo unspecified)	3.16	Non-toxic	230 (≈ 103 µg/mL)	> 39.8	70	–
COc1cccc(C2(C(=O)N3CCC4(CC3)CC(CNS(=O)(=O)N(C)C)CCO4)CCCC2)c1 (stereo unspecified)	6.31	Non-toxic	–	> 39.8	80	–
O=C(NCC1CCOC2(CCN(C(=O)C3(c4ccccc4)CCCC3)CC2)C1)c1ccccc1 (stereo unspecified)	2.51	Non-toxic	70 (≈ 32.2 µg/mL)	15.8	–	–
O=c1nc(NO)ccn1[C@@H]1O[C@H](CO)[C@@H](O)[C@H]1O [N-HYDROXYCYTIDINE]	–	–	–	–	–	1.2
O=C(N1CCC2(CC1)CC(Oc1ccccn1)CCO2)C1(c2ccccc2)CCCC1 (stereo unspecified)	1.26	Non-toxic	20 (≈ 8.41 µg/mL)	> 39.8	60	–
